Reference: patent US12503485B2, “Human aminosterol ENT-03 compounds, related compositions comprising the same, and methods of using the same” (Enterin, Inc., priority 2019, dated 2025)
Several values for one entry are separate records, joined by “and”; a condition that tells them apart may be missing. Identical values can stand only once. Like-named read-outs stand apart in the source and are kept apart here.

Columns and labels:
PTPN1/PTP1B = molecular target: T1, PTPN1/PTP1B (Homo sapiens, UniProt P18031); test: Phosphatase profiling PTPN1/PTP1B, 10-dose IC50, fluorescence; type: biochemical
T1 construct: The enzyme was the human truncated form (1-321), recombinantly produced in Escherichia coli; host or cells: Escherichia coli
T1 sequence (P18031 1-321): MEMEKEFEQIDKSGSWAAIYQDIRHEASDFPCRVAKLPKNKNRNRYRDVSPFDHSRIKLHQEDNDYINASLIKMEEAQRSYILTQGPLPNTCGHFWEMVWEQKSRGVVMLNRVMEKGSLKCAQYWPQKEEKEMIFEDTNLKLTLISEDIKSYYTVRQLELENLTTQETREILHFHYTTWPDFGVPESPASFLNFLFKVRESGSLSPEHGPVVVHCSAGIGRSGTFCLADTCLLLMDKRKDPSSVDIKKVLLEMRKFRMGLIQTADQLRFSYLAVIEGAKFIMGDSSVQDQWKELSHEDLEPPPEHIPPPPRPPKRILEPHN

PTPN11/SHP2 = PTPN11/SHP2 (Homo sapiens, UniProt Q06124); test: Phosphatase assay PTPN11/SHP2; type: biochemical; details: Table 2C; read-out: Compound IC50 (M) PTPN11/SHP2
PTPN11/SHP2-FL = molecular target: T2, PTPN11/SHP2-FL (Homo sapiens, UniProt Q06124); test: Phosphatase assay PTPN11/SHP2-FL with activating peptide; type: biochemical
T2 construct: aa 2-597, isoform 1 (canonical)); StrepII-TEV (N); His-tag (C); purchased Recation Biology Inc; host or cells: E. coli

[1] = molecular target: T3, PP2A Alpha/PP2R1A Complex (Homo sapiens, UniProt P67775); test: Phosphatase assay PP2A Alpha/PP2R1A Complex; type: biochemical
T3 construct: purchased Recation Biology Inc
T3 sequence (P67775 whole entry): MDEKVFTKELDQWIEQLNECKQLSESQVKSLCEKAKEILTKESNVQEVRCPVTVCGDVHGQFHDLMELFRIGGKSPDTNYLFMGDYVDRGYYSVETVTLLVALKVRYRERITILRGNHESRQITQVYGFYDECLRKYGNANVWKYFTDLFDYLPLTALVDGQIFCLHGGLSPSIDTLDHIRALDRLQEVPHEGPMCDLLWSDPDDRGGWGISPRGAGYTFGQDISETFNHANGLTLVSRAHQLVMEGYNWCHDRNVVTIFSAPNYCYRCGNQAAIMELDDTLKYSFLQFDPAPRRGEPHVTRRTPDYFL
T3 sequence (P30153 whole entry partner): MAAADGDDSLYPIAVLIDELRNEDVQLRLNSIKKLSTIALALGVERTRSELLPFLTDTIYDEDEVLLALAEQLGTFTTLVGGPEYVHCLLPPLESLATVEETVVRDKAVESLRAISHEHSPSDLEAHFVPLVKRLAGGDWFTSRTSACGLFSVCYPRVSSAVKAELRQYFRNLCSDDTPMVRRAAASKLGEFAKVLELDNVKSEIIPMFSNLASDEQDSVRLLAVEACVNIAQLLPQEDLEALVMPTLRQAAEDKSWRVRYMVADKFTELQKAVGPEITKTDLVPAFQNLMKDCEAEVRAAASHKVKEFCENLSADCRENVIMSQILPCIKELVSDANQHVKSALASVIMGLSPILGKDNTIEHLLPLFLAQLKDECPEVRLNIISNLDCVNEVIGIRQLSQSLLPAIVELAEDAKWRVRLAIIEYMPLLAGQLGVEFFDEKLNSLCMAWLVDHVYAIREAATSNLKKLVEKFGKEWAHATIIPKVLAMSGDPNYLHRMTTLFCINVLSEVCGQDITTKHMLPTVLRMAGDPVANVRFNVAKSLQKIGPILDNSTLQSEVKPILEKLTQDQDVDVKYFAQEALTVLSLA

[2] = test system: transcriptomes of the stomach, jejunum and ileum; type: in vivo, mice
Experimental: Young (20 week) and aged (80 week) C57bl/6 male mice were administered ENT-03 (40 mg/kg) or vehicle (water) by oral gavage daily for 2 weeks. Over this period of time clinical observations were unremarkable as were the gross and microscopic examinations of the GI tract. The transcriptomes of the stomach, jejunum and ileum were analyzed by RNAseq technology. Comparative analyses of the transcripts from untreated animals identified numerous transcripts that differed in abundance between the corresponding tissues from old and young individuals. […] Thus, within these three distinct regions of the mouse GI tract, ageing is associated with changes in the transcriptome.
Statistical analysis of RNA-sequencing data was performed using R programming language. Transcripts with less than one read count per million reads in all samples of each tissue were removed. The raw count data for the samples were then normalised using trimmed mean of M-values normalisation and transformed with voom (Law et al., 2014), resulting in log 2-transformed counts per million with associated precision weights. […] Statistical comparisons were performed using linear modelling, as implemented in the Bioconductor package limma (Ritchie et al., 2015). Significance values (p-values) were adjusted for multiple testing using Benjamini-Hochberg procedure (Benjamini et al., 1995). For each comparison (e.g. group A versus group B), a positive log 2-transformed fold change indicates up-regulation in group A relative to group B.
To investigate the overlap between contrasts, the number of overlapping differentially expressed genes (defined using adjusted p-value <0.05) between all pairwise combinations of the comparisons performed were counted. For each comparison, the Jaccard index, defined as the intersection over the union, measures the similarity between the two contrasts under consideration. The p-value was calculated using a hypergeometric test taking into account the universe size under the assumption that the contrasts and genes are independent.

[3] = Pharmacokinetic study, intravenous administration in male SD rats; type: in vivo; details: rat plasma, I.V. 5 mg/kg
Experimental: The objective of this example was to determine the pharmacokinetic profile of ENT-03 (Compound III) via intravenous and oral administration in male SD Rats.
Animal feeding control: Animals were food fasted overnight prior to dosing and fed 4 hours after administration having free access to water.
PK Sample Analyses: Concentrations of ENT-03 (Compound III) in the plasma and dose samples were analyzed using a LC-MS/MS method. WinNonlin (Phoenix™, version 6.1) or other similar software was used for pharmacokinetic calculations. The following pharmacokinetic parameters were calculated, whenever possible from the plasma concentration versus time data.
IV Bolus administration: T1/2, C0, AUClast, AUCinf, MRTinf, Cl, Vss, Number of Points for Regression.

PS19 mice = test: Morris water maze, PS19 tauopathy mouse model; type: in vivo; details: 2.5 mg/kg i.p. once per week for 6 weeks, vs vehicle
Xenopus leavis tadpole = test: In vivo activity on Xenopus tadpole in water; details: 10 μg/ml in 500 ml distilled water, about 1 hour
Experimental: To assess the activity of ENT-05 in vivo, the compound was added to 500 ml of distilled water to a concentration of 10 μg/ml. A Xenopus leavis tadpole, premetamorphic, was placed into the solution. […] A second animal was placed in 500 ml of water, containing 10 μg/ml ENT-05, but also 50 mM NaCl. In this case, the animal survived. The animal was then transferred to spring water without either salt or ENT-05 and remained active over the following days.

[4] = test system: transcriptomes of the stomach, jejunum and ileum; type: in vivo; details: aged mice (78 weeks)
[5] = individual animals Rat 1-3, listed as ENT-03 (Compound III), 5 mg/kg

CC(C)[C@@H](CC[C@@H](C)[C@H]1CC[C@H]2[C@@H]3[C@H](O)C[C@H]4C[C@@H](NCCCNCCCCNCCCN)CC[C@]4(C)[C@H]3CC[C@]12C)OS(=O)(=O)O (single isomer, unassigned) [ENT-02, trodusquemine]
% Activity (PTPN1/PTP1B; Conc 1.00E−04 M): −0.16%
Slope (signal/min) (PTPN1/PTP1B; Conc 1.00E−04 M): −68 signal/min
% Activity (PTPN1/PTP1B; Conc 1.11E−05 M): 0.68%
Slope (signal/min) (PTPN1/PTP1B; Conc 1.11E−05 M): 292 signal/min
% Activity (PTPN1/PTP1B; Conc 1.23E−06 M): 86.43%
Slope (signal/min) (PTPN1/PTP1B; Conc 1.23E−06 M): 37260 signal/min
% Activity (PTPN1/PTP1B; Conc 1.37E−07 M): 93.11%
Slope (signal/min) (PTPN1/PTP1B; Conc 1.37E−07 M): 40137 signal/min
% Activity (PTPN1/PTP1B; Conc 1.52E−08 M): 102.11%
Slope (signal/min) (PTPN1/PTP1B; Conc 1.52E−08 M): 44021 signal/min
% Activity (PTPN1/PTP1B; Conc 3.33E−05 M): −1.02%
Slope (signal/min) (PTPN1/PTP1B; Conc 3.33E−05 M): −440 signal/min
% Activity (PTPN1/PTP1B; Conc 3.70E−06 M): 38.12%
Slope (signal/min) (PTPN1/PTP1B; Conc 3.70E−06 M): 16431 signal/min
% Activity (PTPN1/PTP1B; Conc 4.12E−07 M): 92.69%
Slope (signal/min) (PTPN1/PTP1B; Conc 4.12E−07 M): 39959 signal/min
% Activity (PTPN1/PTP1B; Conc 4.57E−08 M): 99.09%
Slope (signal/min) (PTPN1/PTP1B; Conc 4.57E−08 M): 42717 signal/min
% Activity (PTPN1/PTP1B; Conc 5.08E−09 M): 100.94%
Slope (signal/min) (PTPN1/PTP1B; Conc 5.08E−09 M): 43513 signal/min
HILLSLOPE (PTPN1/PTP1B; IC50 curve fit): −2.19
IC50 (PTPN11/SHP2): 3.75e-07 M
activity against full length PTPN11/SHP2, in words (PTPN11/SHP2-FL): active

CC(CCCC(C)C1CCC2C3C(O)CC4CC(NCCCNCCCCNCCCN)CCC4(C)C3CCC12C)C(=O)O (single isomer, unassigned; ent-03) [ENT-03, 3-β-Spermino-7α-hydroxy-5α-cholestanoic acid]
activity at PP2A alpha, in words [1]: inactive
IC50 ([1]; Table 2B, read-out: Compound IC50 (M) PP2A Alpha/PP2R1A Complex): > 0.0001 M
number of differentially expressed genes ([2]; ileum, treated aged mice): 1162 genes
number of differentially expressed genes ([2]; ileum, treated young mice): 80 genes
genes changed significantly in response to exposure ([2]; jejunum and ileum, both young and aged mice): no more than 2 genes
number of differentially expressed genes ([2]; jejunum, treated aged mice): 382 genes
number of differentially expressed genes ([2]; jejunum, treated young mice): 42 genes
Ageing genes complemented by ENT-03 (30 most significant) Stomach ([2]; stomach, aged mice, gene named in value): shadow of prion protein
genes down-regulated in ageing overlapping with genes up-regulated by treatment ([2]; stomach, old mice, P<0.0001 hypergeometric test): 37 genes
number of differentially expressed genes ([2]; stomach, treated aged mice, 40 mg/kg oral daily 2 weeks, p(adj)<0.05): 63 genes
number of differentially expressed genes ([2]; stomach, treated young (20 week) mice, 40 mg/kg oral daily 2 weeks, p(adj)<0.05): 13 genes
ageing genes further down regulated in the ageing direction by treatment ([2]; stomach, young mice): 12 genes
clinical observations and gross and microscopic examinations of the GI tract ([2]; young and aged C57bl/6 male mice, 40 mg/kg oral gavage daily 2 weeks): unremarkable
AUClInf ([3]; Mean of 3 male SD rats): 986.457 µg·h/mL
AUClast ([3]; Mean of 3 male SD rats): 609.005 µg·h/mL
AUC—%Extrap—obs ([3]; Mean of 3 male SD rats): 38.2%
C0 ([3]; Mean of 3 male SD rats): 86.337 µg/mL
Cl_obs ([3]; Mean of 3 male SD rats): 5.1 mL/h/kg
MRTInf—obs ([3]; Mean of 3 male SD rats): 24.6 h
T1/2 ([3]; Mean of 3 male SD rats): 18.2 h
Vss—obs ([3]; Mean of 3 male SD rats): 0.125 L/kg
AUClInf [3, 5]: 922.477 µg·h/mL and 941.13 µg·h/mL and 1095.763 µg·h/mL
AUClast [3, 5]: 557.542 µg·h/mL and 608.321 µg·h/mL and 661.154 µg·h/mL
AUC—%Extrap—obs [3, 5]: 39.6% and 35.4% and 39.7%
C0 [3, 5]: 80.402 µg/mL and 102.409 µg/mL and 76.2 µg/mL
Cl_obs [3, 5]: 5.42 mL/h/kg and 5.31 mL/h/kg and 4.57 mL/h/kg
MRTInf—obs [3, 5]: 25.3 h and 22.9 h and 25.5 h
T1/2 [3, 5]: 18.6 h (2×) and 17.5 h
Vss—obs [3, 5]: 0.137 L/kg and 0.122 L/kg and 0.116 L/kg
learning during the training phase (PS19 mice): improved
memory on the probe day (PS19 mice): improved
effect on tadpole (Xenopus leavis tadpole): No similar effect
genes increased upon treatment that decreased in expression with ageing [4]: 36 genes
